Assay results: patent US20080206738A1, “Compositions and methods for modulating S-nitrosoglutathione reductase” (Duke University, priority 2003, published 2008)

Key:
[1] = tested on: animal models of endotoxic shock; conditions: literature (Feihl et al., 2001; Ou et al., 1997); cited from earlier work
[2] = biological target: T1, GRK2 (Homo sapiens, UniProt P25098); assay: Purified GRK2-mediated in vitro phosphorylation of a soluble peptide substrate (RRREEEEESAAA); format: biochemical; conditions: 500, 50, and 5 μM; n=2; P<0.05
T1 sequence (P25098 1-689): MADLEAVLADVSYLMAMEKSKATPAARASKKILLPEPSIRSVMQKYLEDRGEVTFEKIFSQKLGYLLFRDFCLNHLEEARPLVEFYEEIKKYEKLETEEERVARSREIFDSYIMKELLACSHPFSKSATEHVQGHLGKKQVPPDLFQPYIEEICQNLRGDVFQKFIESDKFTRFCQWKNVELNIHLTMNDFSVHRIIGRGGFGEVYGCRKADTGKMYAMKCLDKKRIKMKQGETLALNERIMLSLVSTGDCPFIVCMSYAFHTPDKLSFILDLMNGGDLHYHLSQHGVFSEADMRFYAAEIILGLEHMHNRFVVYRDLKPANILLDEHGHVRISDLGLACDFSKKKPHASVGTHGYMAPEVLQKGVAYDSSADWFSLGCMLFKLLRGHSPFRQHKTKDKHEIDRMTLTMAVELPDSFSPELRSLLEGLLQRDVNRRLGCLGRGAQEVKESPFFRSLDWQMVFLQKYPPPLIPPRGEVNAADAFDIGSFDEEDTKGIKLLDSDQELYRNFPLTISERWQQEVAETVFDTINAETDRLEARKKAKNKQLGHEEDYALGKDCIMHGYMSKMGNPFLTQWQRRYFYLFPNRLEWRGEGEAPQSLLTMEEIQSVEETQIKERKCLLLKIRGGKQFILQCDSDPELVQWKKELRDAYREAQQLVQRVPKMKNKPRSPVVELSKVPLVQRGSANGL
Protocol: FIGS. 12A-12B: Effect of cysNO (A: 500, 50, and 5 μM) and GSNO (B: 500, 50, and 5 μM) on purified GRK2 mediated in vitro phosphorylation of a soluble peptide substrate (RRREEEEESAAA; SEQ ID NO:30) (n=2; *P<0.05).
To confirm this, experiments were performed to examine the capacity of SNOs to inhibit purified GRK2-mediated phosphorylation of a synthetic peptide substrate (RRREEEEESAAA; SEQ ID NO:30).

[3] = tested on: cardiac β-ARs; assay: Chronic isoproterenol-induced cardiac hypertrophy and β-AR down-regulation in mice (mini-osmotic pump); format: in vivo, mouse
Protocol: FIGS. 13A-13C: Results of Cardiac Studies. FIG. 13A: Heart weight to body weight ratio (hw:bw, mg:g) (n=10); FIG. 13B: Cardiac β-AR density (BMax, fmol/mg protein (n=5); FIG. 13C: Cardiac PARK protein expression levels (n=4), in mice following mini-osmotic pump implantation and treatment for 7 days with either PBS, isoproterenol (ISO) (30 mg/kg/day), GSNO (10 mg/kg/day) or a combination of ISO and GSNO. All data expressed as mean (+/−SEM) (*P<0.05 versus PBS treated mice, +P<0.05 versus ISO treated mice, unpaired t test).
One well established model of experimental cardiac hypertrophy in the mouse involves the chronic administration of the β-AR agonist, isoproterenol. This treatment leads to a functional uncoupling and down-regulation of cardiac β-ARs and the development of a significant increase in wall mass. Experiments were performed to study the effects of GSNO on the development of cardiac hypertrophy and its ability to alter the pattern of β-AR down-regulation associated with chronic isoproterenol stimulation.
Whole cell and membrane receptor/ligand binding was performed to assess functional affinity of receptor for ligand and overall receptor density as described previously. In particular, whole cell and membrane binding was assessed for cells treated with multiple concentrations of NO/SNO in the presence and absence of desensitizing conditions (agonist pre-stimulation).
In contrast, the combined infusion of GSNO with ISO maintained P receptor density (FIG. 13B) because it inhibits PARK (GRK2) (FIGS. 12A-12B). Therefore, inhibitors of GSNOR alone or in combination with β-agonists could be used to improve heart failure, or other vascular disorders such as hypertension and asthma.

[4] = tested on: LPS-challenged GSNOR−/− mice; assay: iNOS inhibition with 1400 W in LPS-challenged GSNOR−/− mice (endotoxic shock); format: in vivo, mouse
From the text: Blood was obtained by cardiac puncture after animals were euthanized by CO2 inhalation. The following serum chemistries were quantified by Antech Diagnostics (Farmingdale, N.Y.): alanine aminotransferase (ALT), aspartate aminotransferase (AST), creatine phosphokinase (CPK), urea nitrogen (BUN), creatinine, amylase, lipase, lactate dehydrogenase, alkaline phosphatase, total protein, globulin, albumin, calcium, magnesium, sodium, potassium, chloride, phosphorus, glucose, bilirubin, cholesterol, triglycerides, and osmolality.
Serum nitrate and nitrite were measured by capillary electrophoresis (CE) (Zunic et al., 1999) with a P/ACE MDQ system (Beckman) and by chemiluminescence (Sievers NO Analyzer). For CE, sera were diluted (1:10) with water and filtered through a 5 kDa cut-off membrane. Electrophoresis of the filtered samples and of nitrate and nitrite standards was carried out in a neutral capillary with Tris buffer (100 mM, pH 8.0), and monitored by absorbance at 214 nm. Nitrite concentrations are higher when measured by CE than by chemiluminescence (Zunic et al., 1999), but no relative differences between CE and chemiluminescence were observed.
LPS (E. coli, serotype 026:B6, Sigma) at a dosage of 150,000 endotoxin units/g (EU/g) was injected intraperitoneally into C57BL/6 and GSNOR^−/− mice. The mice were matched for age (11-12 weeks old), gender, and weight. LPS used for the males was lot number 050K4117 (15 million EU/mg) and LPS used for the females was lot number 101K4080 (3 million EU/mg). Studies were done in 45 additional male mice (22 wild-type and 23 GSNOR^−/−) administered lot number 101K4080. […] Phosphate-buffered saline (PBS, 20 μl/g) was injected in controls. In additional sets of experiments, LPS-challenged GSNOR^−/− mice were injected subcutaneously with the iNOS inhibitor 1400 W (1 μg/g, Cayman) or PBS (10 μl/g). Injections were performed at 6, 24 and 30 hours after LPS, or at 24, 42 and 48 hours after LPS.
Liver homogenates were prepared in lysis buffer (20 mM Tris-HCl, pH 8.0, 0.5 mM EDTA, 100 μM diethylenetriamine pentaacetic acid, 0.1% NP-40 and 1 mM phenylmethylsulfonyl fluoride). SNO levels in the total lysate and in a fraction filtered through a 5 kDa cut-off ultrafiltration membrane (low-mass SNO) were measured by photolysis-chemiluminescence (Liu et al., 2000b) and normalized for protein content.
Survival data on day 6 after LPS treatment were analyzed by both the χ^2 test and the Fisher exact test of contingency tables, with similar results. Blood pressure, SNO levels and serum chemistries were analyzed with the Student's t-test or with the nonparametric Mann-Whitney test.
Additional experiments were performed to establish the contribution of nitrosative stress to the pathogenesis of endotoxic shock. LPS-challenged GSNOR^−/− mice were treated with 1400 W, a selective iNOS inhibitor. Administration of 1400 W, initiated 6 h following LPS injection, reduced serum nitrate (i.e., NOS activity) by about 50% (FIG. 7A, P=0.015) and liver injury by about 90% (FIG. 7C, P=0.020). This improvement coincided with a reduction of liver SNO by about 90% (FIG. 7B). […] By comparison, PBS (volume control) had little effect (FIG. 7D vs. FIG. 3D). When administration of 1400 W was delayed for 24 h following LPS injection, this allowed SNOs to accumulate to hazardous levels, and the protection conferred by NOS inhibition was lost (3 out of 5 female GSNOR^−/− mice died).

[5] = biological target: T1, GRK2; assay: GRK2-mediated phosphorylation of rhodopsin from purified bovine rod outer segments; format: biochemical; conditions: cysNO 5, 50, 500 μM, light stimulated
Protocol: (§1) FIGS. 11A-11B. Results from GRK studies. FIG. 11A. Representative gel from experiments examining the effect of cysNO (500, 50, and 5 μM) on isoproterenol (10 μM) stimulated GRK2 mediated receptor phosphorylation using purified β2-AR reconstituted in synthetic vesicles and purified GRK2. FIG. 11B: Representative gel from experiments examining the effect of cysNO (5, 50, and 500 μM) light stimulated GRK2 mediated phosphorylation of rhodopsin using purified bovine rod outer segments and purified GRK2.
(§2) Previous data provided strong evidence supporting the hypothesis that NO prevented GRK (G protein-coupled receptor kinase)-mediated phosphorylation of the β2-AR (adrenergic receptor). Further experiments were required to determine whether NO was acting directly on the receptor or the GRKs. To elucidate the site of NO action, its effect was tested on GRK2-mediated phosphorylation of the β2-AR and on a soluble peptide substrate using purified proteins in a reconstituted system.

[6] = biological target: T1, GRK2; assay: GRK2-mediated phosphorylation of purified β2-AR in a reconstituted system; format: biochemical; conditions: cysNO 500, 50, 5 μM; isoproterenol (10 μM) stimulated; β2-AR reconstituted in synthetic vesicles
Protocol: as §1, §2

[7] = GSNO 10 mg/kg/day via osmotic mini-pump with ISO 30 mg/kg/day
[8] = administration of 1400 W delayed for 24 h following LPS injection
[9] = ISO infused for 7 days using a pump (30 mg/kg/day)

Structure (SMILES): CC(=N)NCCCC[C@H](N)C(=O)O [N-(1-iminoethyl)-L-lysine, N6-(1-Iminoethyl)-L-lysine]
- effect on injury in animal models of endotoxic shock [1]: either have little effect or worsen injury

Structure (SMILES): N[C@@H](CCC(=O)N[C@@H](CSN=O)C(=O)NCC(=O)O)C(=O)O [GSNO, S-nitrosoglutathione]
- GRK2 mediated phosphorylation of the synthetic peptide substrate [2]: significantly inhibited
- isoproterenol-stimulated changes in heart weight to body weight ratio [3, 7]: no effect
- β-AR down-regulation [3, 7]: significantly decreased
- β receptor density ([3]; combined infusion of GSNO with ISO): maintained

Structure (SMILES): CC(=N)NCc1cccc(CN)c1 [1400 W, N-[3-(aminomethyl)benzyl]acetamidine]
- effect on injury in animal models of endotoxic shock [1]: either have little effect or worsen injury
- survival rate of LPS-challenged GSNOR−/− mice ([4]; 1400 W initiated 6 h following LPS injection, P=0.03): significantly improved
- reduction of serum nitrate (i.e., NOS activity) ([4]; GSNOR−/− mice, 1400 W 1 μg/g s.c. initiated 6 h following LPS injection, P=0.015): about 50%
- reduction of liver SNO ([4]; GSNOR−/− mice, 1400 W initiated 6 h following LPS injection): about 90%
- reduction of liver injury (serum ALT) ([4]; GSNOR−/− mice, 1400 W initiated 6 h following LPS injection, P=0.020): about 90%
- tissue injury in kidney, pancreas, and muscle (serum markers) ([4]; GSNOR−/− mice, 48 h after LPS treatment, 1400 W initiated 6 h following LPS): reduced
- female GSNOR−/− mice that died [4, 8]: 3 out of 5
- protection conferred by NOS inhibition [4, 8]: lost

Structure (SMILES): CC(C)NCC(O)c1ccc(O)c(O)c1 (stereo not shown) [isoproterenol]
- cardiac weight [3, 9]: increases
- β adrenergic receptor levels [3, 9]: decreased
- βARK (GRK2) expression [3, 9]: increased

Structure (SMILES): N[C@@H](CSN=O)C(=O)O [cysNO]
- GRK2 mediated phosphorylation of the synthetic peptide substrate [2]: significantly inhibited
- GRK2-mediated phosphorylation of rhodopsin [5]: significantly decreased
- GRK2-mediated phosphorylation of the purified β2-AR [6]: significantly decreased
